Data reported in patent US20130101666A1, “LIPOSOME INCLUDING ELASTIN-LIKE POLYPEPTIDE CONJUGATED TO MOIETY CONTAINING HYDROPHOBIC GROUP, CHEMOSENSITIZER AND ANTICANCER AGENT AND USE THEREOF” (SAMSUNG ELECTRONICS CO., LTD., priority 2011, published 2013).

What was measured:
[1] = Amounts of drugs entrapped in liposomes by loading method (HPLC); format: physicochemical
Experimental: Two types of drugs, i.e., doxorubicin and verapamil, were loaded in the liposome. The loading process was performed using an ammonium sulfate gradient method (J. Control. Release 2009, 139, 73-80) or a pH-gradient method (Biochimica et Biophysica Acta 1985, 816, 294-302). In the loading process by the ammonium sulfate gradient method, a drug was added to the liposome solution formed of liposomes with 250 mM or 150 mM of ammonium sulfate inside and 25 mM of Tris-HCl buffer outside. The loading process was performed at a temperature of 37° C. for 60 minutes. In the loading process by the pH-gradient method, a drug was added to the liposome solution formed of liposomes with 300 mM of citrate buffer (pH 4.0) inside and 20 mM of HEPES buffer (150 mM NaCl, pH 7.4) outside. The loading process was performed at a temperature of 37° C. for 60 minutes.
The prepared liposome solution was passed through PD-10 (GE Healthcare) desalting column by flowing physiological saline therethrough to remove unentrapped drug.
Doxorubicin and verapamil entrapped in the liposomes were analyzed by high performance liquid chromatography (HPLC).
The liposomes co-encapsulating certain amounts of doxorubicin and verapamil were diluted and dissolved in dimethylsulfoxide (DMSO) and then introduced into a HPLC column. The analysis by HPLC was performed by eluting the drugs using KH2PO4/MeCN as an eluent and measuring absorbance thereof at 280 nm.
In the loading process, initial concentrations of doxorubicin and verapamil were 500 μg and 250 μg, respectively, based on 1 mL of the liposome solution.

NCI/ADR-RES cells [2] = assay: cells; details: Homo sapiens, 10 min, read-out: cell viability
Experimental: (§1) In addition, cytotoxicity of the liposome with doxorubicin and verapamil entrapped therein against NCI/ADR-RES cells was confirmed. […] 50% based on the weight of doxorubicin of verapamil, was contained in the liposome. […] In this experiment, NCI/ADR-RES cells were incubated in each of a MEM containing free doxorubicin and a MEM containing the liposome with doxorubicin and verapamil entrapped therein, 10 volume % FBS, and 1 wt % PS at 37° C. for 48 hours. In particular, NCI/ADR-RES cells (5.0×10^4 cells) were cultured in MEM containing 10% (v/v) FBS and 1% penicillin/streptomycin in a well of the 24-well plate for 48 hours. The cultured NCI/ADR-RES cells were treated with the liposomes containing doxorubicin and verapamil at a variety of concentrations, immediately placed in a thermoshaker, and then incubated at 37° C. for 10 minutes. […] Thereafter, the NCI/ADR-RES cells were cultured at 37° C. for 48 hours, and the viability of the NCI/ADR-RES cells was measured using CCK-8 assay kit (Dojindo) by WST (water soluble tetrazolium) assay.
(§2) NCI/ADR-RES cells (5.0×10^4 cells) were cultured in MEM containing 10% (v/v) FBS and 1% penicillin/streptomycin in a well of the 24-well plate for 48 hours. […] Thereafter, the NCI/ADR-RES cells were cultured at 37° C. for 46 hours, and the viability of the NCI/ADR-RES cells was measured using CCK-8 assay kit (Dojindo) by WST assay. […]

NCI/ADR-RES cells [3] = assay: Viability of NCI/ADR-RES cells cultured in the presence of doxorubicin (WST assay); format: cell-based; details: Homo sapiens, 20 ug/mL doxorubicin, 37° C. for 2 hours, fresh media, 2 days, FIG. 1, read-out: NCI/ADR-RES cells survived (viability)
Experimental: Tumor cells having a resistance against doxorubicin, i.e., NCI/ADR-RES cells, were cultured in the presence of doxorubicin and the viability of the cells was evaluated. NCI/ADR-RES cells are tumor cells derived from OVCAR-8.
NCI/ADR-RES cells were incubated in minimum essential media (MEM) containing various concentrations of doxorubicin (0.1, 0.5, 1.0, 2.5, 5.0, 10 or 20 ug/mL), 10 volume % fetal bovine serum (FBS), and 1 wt % penicillin-streptomycin (PS) at 37° C. for 2 hours. After the MEM was replaced with fresh media, the cells were incubated at 37° C. for 2 days. The viability of the cells was evaluated by water soluble tetrazolium (WST) assay. FIG. 1 is a graph showing the viability of NCI/ADR-RES cells when being cultured in the presence of doxorubicin.

NCI/ADR-RES cells [4] = details: 45° C. for 10 minutes; 10 ug doxorubicin/mL (liposome: +5 ug verapamil/mL); FIG. 7A/7B
Experimental: as §1, §2

[5] = ammonium sulfate gradient method, 150 mM ammonium sulfate (inside), 25 mM Tris HCl buffer (outside), initial doxorubicin 500 μg, verapamil 250 μg per 1 mL

| amount of entrapped doxorubicin [1, 5] | amount of entrapped doxorubicin ([1]; ammonium sulfate gradient method, 250 mM ammonium sulfate (inside), 25 mM Tris HCl buffer (outside), initial doxorubicin 500 μg, verapamil 250 μg per 1 mL) | amount of entrapped doxorubicin ([1]; pH-gradient method, 300 mM citrate buffer (pH 4.0) (inside), 20 mM HEPES buffer (150 mM NaCl, pH 7.4) (outside)) | SMILES | amount of entrapped verapamil [1, 5] | viability at 20 µg/mL (NCI/ADR-RES cells [2]) | viability at 20 µg/mL (NCI/ADR-RES cells [3]) | cell viability (NCI/ADR-RES cells [4]) |
| --- | --- | --- | --- | --- | --- | --- | --- |
| – | – | – | COc1ccc(CCN(C)CCCC(C#N)(c2ccc(OC)c(OC)c2)C(C)C)cc1OC (racemic) [Verapamil, (RS)-2-(3,4-dimethoxyphenyl)-5-{[2-(3,4-dimethoxyphenyl)ethyl]-(methyl)amino}-2-prop-2-ylpentanenitrile] | 1.4 µg/mL | – | – | – |
| 36.5 µg/mL | 404 µg/mL | 42 µg/mL | COc1cccc2c1C(=O)c1c(O)c3c(c(O)c1C2=O)C[C@@](O)(C(=O)CO)C[C@@H]3O[C@H]1C[C@H](N)[C@H](O)[C@H](C)O1 [Doxorubicin, doxorubicin] | – | 50% | > 70% | about 70% |
